Patent US12263156B2, “Use of small molecule inhibitors of the BfrB:Bfd interaction in biofilms” (priority 2020, dated 2025)

Key:
[1] = test system: P. aeruginosa PAO1 pellicle cells; test: Total intracellular iron in biofilm-embedded cells; assay type: cell-based, Pseudomonas aeruginosa; conditions: 24 h; KM-5-25 40 μM, KM-5-66 20 μM
Description: (§1) Recombinant BfrB (BfrBrec) was used as a standard for the electrophoretic mobility of BfrB. The lane corresponding to untreated control was loaded with 0.5× the volume of the lanes loaded with lysates from treated pellicles to account for the ˜2-fold larger number of viable cells in the untreated pellicles. Lanes loaded with treated pellicle lysates show greater accumulation of iron in BfrB relative to untreated cells. […] (A), (C) and (D) show the average of results from 3 biological replicates, p<0.001 is denoted by *** relative to untreated.
(§2) Pellicle biofilms were grown for 48 hours as described above. The pellicles were transferred onto square (2 cm×2 cm) glass coverslips by gently contacting the pellicle with the coverslip. […] Levels of total intracellular iron were determined as reported previously:^23, 86 the cell pellets were treated with 500 μL of freshly prepared digestion reagent (0.6 N HCl, 2.25% (w/v) KMnO4 in water), thoroughly mixed by vortexing, and then incubated at 65° C. for 3.5 hours. […] The iron concentration was measured from the absorbance of the Fe^2+-Ferene S complex (ε593=34.5 mM^−1 cm^−1),^87 normalized by the viable cell counts and reported as Fe atoms per cell. […]

[2] = test system: EYFP-expressing P. aeruginosa PAO1 pellicle biofilms; test: Pellicle biofilm assay (CLSM imaging, COMSTAT biomass); assay type: cell-based, Pseudomonas aeruginosa; conditions: 2-day old pellicles, 24 h; KM-5-25 80 μM, KM-5-66 50 μM (about 1.2× the IC50)
Experimental: Pellicle biofilms of EYFP-expressing P. aeruginosa PAO1 or clinical isolates were grown in PI media supplemented with 20 μM Fe. Starter cultures were diluted to OD600=0.001 in 4 mL media, placed in 35×10 mm petri dishes and incubated statically at 30° C. for 48 hours. The pellicles were transferred onto circular (1.5 cm diameter) glass coverslips by gently allowing the surface of a coverslip to contact a pellicle. The pellicle-adhered coverslip was washed in PBS and then deposited on top of 1.5 mL of AB challenge media contained in a well of a 12-well microplate, with the pellicle exposed to the media. […] The coverslip-adhered pellicles were exposed to challenge media at 30° C. for 24 hours, changing the challenge media every 12 hours by transferring the pellicle-adhered coverslip to a new plate containing pre-warmed challenge media.
Excess fluorescent dye was washed with PBS, the coverslip was mounted on a glass slide using 5 μL of SlowFade (Invitrogen, Carlsbad, CA) and the edges sealed with fingernail polish. CLSM image stacks (z-step size of 0.3 μm) were acquired with the aid of a Leica TCS SP8 microscope, as described above. Quantitative analysis was performed by determination of pellicle biomass using COMSTAT^54 and the Otsu method of automatic thresholding.^85
To expand the observations made with flow cell biofilms into a second biofilm model, the susceptibility of biofilms grown at the air-liquid interface (pellicles) was also studied.^56-57 Pellicle biofilms (henceforth pellicles) are an attractive alternative platform to study biofilms because pellicles are amenable to imaging by CLSM and to harvesting, which can be desirable for additional biofilm analysis.^26 To determine the susceptibility of pellicles to antibiotics or inhibitors of the BfrB-Bfd complex, 2-day old pellicles of EYFP-expressing P. aeruginosa cells were cultured in PI media supplemented with 20 μM Fe. The pellicles were transferred onto glass coverslips by allowing the surface of the coverslip to contact a pellicle.

[3] = molecular target: BfrB (apo-BfrB) (Pseudomonas aeruginosa (strain ATCC 15692 / DSM 22644 / CIP 104116 / JCM 14847 / LMG 12228 / 1C / PRS 101 / PAO1), UniProt Q9HY79); test: Fluorescence polarization measurement of dissociation constant (Kd); assay type: binding; conditions: for Kd: 100 mM potassium phosphate buffer pH 7.6, 1 mM TCEP, 0.5% DMSO, average ± SD
Experimental: Values were obtained in 100 mM potassium phosphate buffer (pH 7.6) containing 1 mM TCEP and 0.5% DMSO. The initial concentrations of KM-5-25 and KM-5-66 were 5 μM. The Kd values are the average and standard deviation from three independent measurements. […] The IC50 values are the average and the standard derivations from three independent experiments.
Prior to testing the effect that the 4-substituted isoindoline-1,3-dione derivatives might exert on P. aeruginosa cells, the strength of their interaction with BfrB was evaluated in vitro with a fluorescence polarization assay developed based on the intrinsic fluorescence of the isoindoline-1,3-dione moiety.

[4] = test system: iron stored in BfrB in P. aeruginosa PAO1 pellicle cells; test: Imaging of iron stored in BfrB in biofilm-embedded cells (native PAGE, Ferene S, densitometry); assay type: cell-based, Pseudomonas aeruginosa; conditions: 24 h; KM-5-25 40 μM, KM-5-66 20 μM
Description: as §1, §2

Row | SMILES | total intracellular iron normalized to viable cell counts, relative to untreated biofilms [1] | cells in the pellicle treated (killed), COMSTAT [2] | Kd [3] | fold higher binding affinity for BfrB relative to JAG-5-7 ([3]; relative to JAG-5-7) | iron in BfrB relative to untreated pellicles (Ferene S band peak areas) [4] | fold decrease of Kd relative to compound 16 ([3]; relative to compound 16)
1 | O=C1NC(=O)c2c(NCc3cc(Cl)ccc3O)cccc21 [KM-5-25] | ~2.5 fold | ~85% | 4000 ± 600 nM | ~2 fold | ~3 fold | –
2 | O=C1NC(=O)c2c(NCCCc3cc(O)cc(Cl)c3)cccc21 [KM-5-66] | ~2.5 fold | ~85% | 350 ± 50 nM | – | ~3 fold | ~4 fold
